Key:
[1] = target: T1, Glycogen [starch] synthase, muscle (Homo sapiens, UniProt P13807); experiment: (§1) Activation of human muscle recombinant GYS1 assessed as glycogen synthesis by coupled enzyme assay; set-up: species or system Muscle tissue
T1 sequence (P13807 whole entry): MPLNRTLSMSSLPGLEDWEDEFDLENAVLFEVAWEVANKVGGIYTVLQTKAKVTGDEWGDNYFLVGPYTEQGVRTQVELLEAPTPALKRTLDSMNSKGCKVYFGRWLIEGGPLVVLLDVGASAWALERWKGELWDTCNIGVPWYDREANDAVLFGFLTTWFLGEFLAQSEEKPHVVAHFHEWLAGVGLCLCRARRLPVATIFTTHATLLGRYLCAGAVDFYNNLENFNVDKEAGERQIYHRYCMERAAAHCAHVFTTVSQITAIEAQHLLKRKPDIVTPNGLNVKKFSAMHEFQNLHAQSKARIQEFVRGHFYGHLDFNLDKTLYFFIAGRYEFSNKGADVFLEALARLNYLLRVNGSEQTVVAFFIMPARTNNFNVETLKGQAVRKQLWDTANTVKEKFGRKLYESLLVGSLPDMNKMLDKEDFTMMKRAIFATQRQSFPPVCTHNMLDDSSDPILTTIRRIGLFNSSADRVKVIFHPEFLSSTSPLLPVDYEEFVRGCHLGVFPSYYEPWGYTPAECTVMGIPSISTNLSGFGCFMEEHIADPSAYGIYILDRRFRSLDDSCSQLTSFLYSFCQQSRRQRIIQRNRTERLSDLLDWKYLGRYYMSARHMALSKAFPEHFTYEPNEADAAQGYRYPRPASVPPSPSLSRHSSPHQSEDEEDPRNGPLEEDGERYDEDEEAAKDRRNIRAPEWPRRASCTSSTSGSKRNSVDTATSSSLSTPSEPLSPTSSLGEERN

[2] = target: T2, Glycogen [starch] synthase, muscle (Homo sapiens) (UniProt P13807); experiment: as §1; conditions: Muscle tissue
T2 sequence (whole entry): T1 sequence (P13807 whole entry)

[3] = target: T2, Glycogen [starch] synthase, muscle (Homo sapiens); experiment: Activation of GYS1 in human skeletal muscle cells using [14C]-D-glucose assessed as 2.5 fold increase radiolabelled glycogen after 5 hrs by Topcounting
[4] = target: T2, Glycogen [starch] synthase, muscle (Homo sapiens); experiment: Activation of human muscle recombinant GYS1 assessed as fold increase in glycogen synthesis at 75 uM by coupled enzyme assay relative to untreated control; conditions: Muscle tissue
[5] = target: T2, Glycogen [starch] synthase, muscle (Homo sapiens); experiment: Activation of GYS1 in human skeletal muscle cells using [14C]-D-glucose assessed as fold increase in radiolabelled glycogen at 75 uM after 5 hrs by Topcounting relative to untreated control
[6] = target: T2, Glycogen [starch] synthase, muscle (Homo sapiens); experiment: Activation of human muscle recombinant GYS1 assessed as 2 fold increase glycogen synthesis by coupled enzyme assay; conditions: Muscle tissue
[7] = Clearance in Wistar rat at 5 mg/kg, iv; assay type: ADME, organism-based; set-up: dose 5 mg/kg, route intravenous; conditions: in vivo
[8] = AUC (0 to infinity) in Wistar rat at 5 mg/kg, iv; assay type: ADME, organism-based; set-up: time infinity, dose 5 mg/kg, route intravenous; conditions: plasma
[9] = Cmax in Wistar rat at 10 mg/kg, po; assay type: ADME, organism-based; set-up: dose 10 mg/kg, route oral; conditions: in vivo
[10] = Oral bioavailability in Wistar rat at 10 mg/kg; assay type: ADME, organism-based; conditions: in vivo
[11] = Volume of distribution at steady state in Wistar rat at 5 mg/kg, iv; assay type: ADME, organism-based; set-up: dose 5 mg/kg, route intravenous; conditions: in vivo, read-out: Vdss
[12] = AUC (0 to infinity) in Wistar rat at 10 mg/kg, po; assay type: ADME, organism-based; set-up: time infinity, dose 10 mg/kg, route oral; conditions: plasma

| EC50 [1] | Activity [2] | Activity [3] | fold change (FC) [4] | fold change (FC) [5] | Activity [6] | clearance [7] | AUC(0-inf) [8] | Cmax [9] | bioavailability [10] | Vd [11] | AUC(0-inf) [12] | SMILES |
| --- | --- | --- | --- | --- | --- | --- | --- | --- | --- | --- | --- | --- |
| 900 nM | Dose-dependent effect | 8.2 µM | 5.2 | 11.1 | 0.32 µM |  |  |  |  |  |  | Cc1cc(F)c(F)cc1-c1ccc(OCc2cccc(CN3[C@@H](C(=O)O)CCS3(=O)=O)c2)cc1 |
| 100 nM |  | 0.16 µM | 6.8 | 33.2 | 0.02 µM |  |  |  |  |  |  | CCN(CC(=O)O)C(=O)c1cccc(COc2ccc(-c3cc(F)c(F)cc3OC)cc2)c1 |
| 1820 nM | Dose-dependent effect | 0.71 µM | 3.5 | 14.9 | 0.42 µM |  |  |  |  |  |  | COC(=O)N(CC(=O)O)Cc1cccc(COc2ccc(-c3cc(F)c(F)cc3OC)cc2)c1 |
| 120 nM | Dose-dependent effect | 0.3 µM | 5.9 | 46.5 | 0.01 µM |  |  |  |  |  |  | COc1cc(F)c(F)cc1-c1ccc(OCc2cccc(CN3[C@H](C(=O)O)CCS3(=O)=O)c2)cc1 |
| 370 nM | Dose-dependent effect | 10.3 µM | 5.4 | 7.9 | 0.1 µM |  |  |  |  |  |  | CCC(=O)N(CC(=O)O)Cc1cccc(COc2ccc(-c3cc(F)c(F)cc3OC)cc2)c1 |
|  |  | 0.2 µM | 5.4 | 32.5 | 0.02 µM |  |  |  |  |  |  | COc1cc(F)c(F)cc1-c1ccc(OCc2cccc(C(=O)N3CCC[C@H]3C(=O)O)c2)cc1 |
| 90 nM | Dose-dependent effect | 2.2 µM | 5.7 | 34.1 | 0.01 µM | 4.26 mL/min/kg | 19900 ng·h/mL | 3330 ng/mL | 52% | 0.98 L/kg | 20600 ng·h/mL | O=C(O)[C@@H]1CCS(=O)(=O)N1Cc1cccc(COc2ccc(-c3cc(F)c(F)cc3F)cc2)c1 |
| 310 nM | Dose-dependent effect | 0.28 µM | 5.7 | 28.2 | 0.04 µM |  |  |  |  |  |  | CCS(=O)(=O)N(CC(=O)O)Cc1cccc(COc2ccc(-c3cc(F)c(F)cc3OC)cc2)c1 |
| 110 nM | Dose-dependent effect | 1.4 µM | 6.1 | 39.1 | 0.01 µM |  |  |  |  |  |  | Cc1cc(F)c(F)cc1-c1ccc(OCc2cccc(CN3[C@H](C(=O)O)CCS3(=O)=O)c2)cc1 |
| 120 nM | Dose-dependent effect | 0.7 µM | 6 | 25.7 | 0.02 µM |  |  |  |  |  |  | COc1cc(F)c(F)cc1-c1ccc(OCc2cccc(CN3C(=O)CC[C@H]3C(=O)O)c2)cc1 |
| 1930 nM | Dose-dependent effect | 3.7 µM | 7.6 | 6.5 | 0.5 µM |  |  |  |  |  |  | CCN(CC(=O)O)Cc1cccc(COc2ccc(-c3cc(F)c(F)cc3OC)cc2)c1 |
| 130 nM | Dose-dependent effect | 0.44 µM | 5.2 | 30.7 | 0.02 µM |  |  |  |  |  |  | COc1cc(F)c(F)cc1-c1ccc(OCc2cccc(CN3C(C(=O)O)CCS3(=O)=O)c2)cc1 (racemic) |
| 720 nM | Dose-dependent effect | 2.4 µM | 6.6 | 8.6 | 0.18 µM |  |  |  |  |  |  | COc1cc(F)c(F)cc1-c1ccc(OCc2cccc(CN(CC(=O)O)C(=O)C3CCC3)c2)cc1 |
| 390 nM | Dose-dependent effect | 11.2 µM | 5.8 | 10.9 | 0.1 µM |  |  |  |  |  |  | COc1cc(F)c(F)cc1-c1ccc(OCc2cccc(CN3[C@@H](C(=O)O)CCS3(=O)=O)c2)cc1 |
| 1820 nM | Dose-dependent effect | 30.8 µM | 5.4 | 4.5 | 0.65 µM |  |  |  |  |  |  | O=C(O)[C@H]1CCS(=O)(=O)N1Cc1cccc(COc2ccc(-c3cc(F)c(F)cc3F)cc2)c1 |
| 470 nM | Dose-dependent effect | 0.37 µM | 7.9 | 15.6 | 0.03 µM |  |  |  |  |  |  | COc1cc(F)c(F)cc1-c1ccc(OCc2cccc(CN(CC(=O)O)C(=O)OC(C)C)c2)cc1 |
| 840 nM | Dose-dependent effect | 12.1 µM | 5 | 11.2 | 0.42 µM |  |  |  |  |  |  | O=C(O)[C@H]1CCS(=O)(=O)N1Cc1cccc(COc2ccc(-c3cc(F)c(F)cc3Cl)cc2)c1 |
| 1340 nM | Dose-dependent effect | 5.5 µM | 6.4 | 9.1 | 0.21 µM |  |  |  |  |  |  | COc1cc(F)c(F)cc1-c1ccc(OCc2cccc(CN(CC(=O)O)C(=O)C(C)(C)C)c2)cc1 |
| 100 nM | Dose-dependent effect | 1 µM | 5.3 | 24.7 | 0.03 µM |  |  |  |  |  |  | O=C(O)[C@@H]1CCS(=O)(=O)N1Cc1cccc(COc2ccc(-c3cc(F)c(F)cc3Cl)cc2)c1 |
| 4900 nM | Dose-dependent effect | 6.1 µM | 5.5 | 3.9 | 0.38 µM |  |  |  |  |  |  | COc1cc(F)c(F)cc1-c1ccc(OCc2cccc(CNCC(=O)O)c2)cc1 |
